From paper PMC12030059, “Mechanistic Advances in the Therapeutic Application of Bixin for Lung Inflammation In Vitro and In Vivo” (Pharmaceuticals, 2025)

Assays:
Format in all cases: cell-based
RAW 264.7 cells [1] = experiment: ROS scavenger activity assay (NBT), LPS-induced; conditions: for ROS production induced by LPS: LPS 10 μg/mL, 12.5–200 μM, effect starting from 100 µM
Description: ROS levels were determined using the NBT method. RAW 264.7 cells were incubated for 1 h with 10 μg/mL LPS and different concentrations of bixin or potassium bixinate (0–200 μM) to evaluate their ability to intercept superoxide anions induced by LPS. After incubation, a 10% (w/v) NBT solution was added to each well and incubated for 1 h at 37 °C. Cellular membranes were permeabilized with 2 M KOH, and the resulting formazan was solubilized in DMSO. Optical density (OD) was measured at 630 nm using a Varioskan LUX spectrophotometer (ThermoFisher Scientific, Waltham, MA, USA).

RAW 264.7 cells [2] = experiment: Wound healing migration assay; conditions: 24 h, mitomycin C pretreated; for cell migration (wound closure), compound alone: 200 μM, no stimulus; for cell migration induced by CSE: CSE 5% plus compound
Description: RAW 264.7 cells were seeded in a 24-well plate (4.0 × 10^5 cells/well) and cultured until maximum confluence. Cells were then treated with mitomycin C (5 μg/mL) in FBS-free DMEM for 2 h, followed by washing with PBS. A linear scratch was made with a 200 μL pipette tip in each well. Cells were then stimulated for 24 h with the stimuli diluted in DMEM supplemented with 1% (v/v) FBS. Wound closure was monitored by capturing images at 0 and 24 h. The area of wound closure in each image was measured at five different points using a ruler tool, and an average was calculated for each image and condition. Cell migration was quantified as the percentage of wound closure at 24 h compared to the area at 0 h for each group.

[3] = tested on: F-actin in RAW 264.7 cells; experiment: F-actin polymerization assay; conditions: 200 μM, alone and in the presence of 5% CSE
Description: RAW 264.7 cells were seeded in a 24-well plate (2.5 × 10^5 cells/well) and stimulated as previously described. After reaching 70% confluence, cells were blocked with 5% (w/v) BSA for 1 h and washed three times in PBS-Tween 20 (0.1% (v/v)). The supernatants were replaced with ActinRed (ThermoFisher Scientific, Waltham, MA, USA) for 30 min, followed by washing and incubation with DAPI for 5 min. After the final wash, DMEM FluoroBrite was added, and fluorescence was analyzed using the EVOS inverted microscope (ThermoFisher Scientific, Waltham, MA, USA).

[4] = tested on: p-p65 NF-κB in RAW 264.7 cells; experiment: Immunocytochemistry for p-p65 nuclear translocation; conditions: for nuclear p-p65 (green fluorescence colocalized with DAPI), compound alone: 200 μM, no stimulus; for p-p65 NF-κB nuclear translocation in cells stimulated with CSE: 5% CSE then compound 200 μM
Description: RAW 264.7 cells were seeded in a 24-well plate (2.5 × 10^5 cells/well) and stimulated as previously described. After reaching 70% confluence, cells were blocked with 5% (w/v) BSA for 1 h, then washed three times in PBS-Tween 20 (0.1% (v/v)). The supernatants were replaced with a solution containing the primary antibody against p-p65 (#3033-rabbit-1:500) (Cell Signaling Technology, Danvers, MA, USA) diluted in PBS-T with 1% (w/v) BSA and incubated overnight. After incubation, cells were incubated for 1 h with a secondary antibody conjugated to Alexa Fluor-488 (1:1000; ThermoFisher Scientific, Waltham, MA, USA). Cells were then washed three times with PBS-T and incubated with DAPI for 5 min. After the final wash, DMEM FluoroBrite was added, and fluorescence was analyzed using the EVOS inverted microscope (ThermoFisher Scientific, Waltham, MA, USA). Images were captured at 20× magnification from at least 10 fields for each experimental condition, and fluorescence intensity was quantified.

HDAC6 = experiment: Western blotting, HDAC6 expression; conditions: RAW 264.7, increase by CSE 5%
Description: The RAW 264.7 macrophage cell lines were cultured in DMEM supplemented with 10% (v/v) FBS, pH 7.2, at 37 °C in a humidified atmosphere with 5% CO2. RAW 264.7 cells were plated in a 24-well plate (3.5 × 10^5 cells/well) in DMEM with 1% (v/v) FBS and left overnight to adhere. […] After incubation, the medium was removed, and a 100 μM solution of bixin or potassium bixinate (diluted in DMEM; bixin was first prepared as a stock solution in DMSO) was added for an additional 1 h.
Cells were lysed in RIPA buffer containing […]™ Protease Inhibitor and 1 mM sodium orthovanadate. Samples were then analyzed using the bicinchoninic acid (BCA) method (BCA Protein Assay Kit). […] For protein quantification, 10 μL of the sample was mixed with 100 μL of the working solution, and the same procedure was performed for each point on the standard curve in a 96-well plate. […] Absorbance was read at 565 nm using a Varioskan LUX spectrophotometer (ThermoFisher Scientific, Waltham, MA, USA).
(§1) Cell lysates (10–20 μg of protein) were separated by SDS-PAGE (sodium dodecyl sulfate polyacrylamide gel for electrophoresis) (8 or 12% polyacrylamide) and transferred (25 V, 1.0 A, 30 min—Trans-Blot Turbo Transfer System, Bio-Rad—São Paulo, Brazil) to a PVDF membrane. […] Densitometry was quantified using ImageJ software v. […] Results are expressed as densitometric values for each protein normalized to β-actin.

ICAM-1 = experiment: Western blotting, ICAM-1 expression; conditions: RAW 264.7, 200 μM following CSE 5% exposure
Description: (§2) The RAW 264.7 macrophage cell lines were cultured in DMEM supplemented with 10% (v/v) FBS, pH 7.2, at 37 °C in a humidified atmosphere with 5% CO2. RAW 264.7 cells were plated in a 24-well plate (3.5 × 10^5 cells/well) in DMEM with 1% (v/v) FBS and left overnight to adhere. […]
(§3) Cells were lysed in RIPA buffer containing […]™ Protease Inhibitor and 1 mM sodium orthovanadate. Samples were then analyzed using the bicinchoninic acid (BCA) method (BCA Protein Assay Kit). Standard curves with known albumin concentrations (0–2 mg/mL) were used. The working solution was prepared according to the manufacturer’s instructions. For protein quantification, 10 μL of the sample was mixed with 100 μL of the working solution, and the same procedure was performed for each point on the standard curve in a 96-well plate. […] Absorbance was read at 565 nm using a Varioskan LUX spectrophotometer (ThermoFisher Scientific, Waltham, MA, USA).
as §1

NOS2 = experiment: Western blotting, NOS2 expression; conditions: RAW 264.7, 200 μM, CSE 5%
Description: as §2, §3, §1

Compound | ROS production induced by LPS (RAW 264.7 cells [1]) | cell migration (wound closure), compound alone (RAW 264.7 cells [2]) | cell migration induced by CSE (RAW 264.7 cells [2]) | F-actin labeling (MFI) [3] | nuclear p-p65 (green fluorescence colocalized with DAPI), compound alone [4] | p-p65 NF-κB nuclear translocation in cells stimulated with CSE [4] | HDAC6 expression (HDAC6/β-actin) (HDAC6) | ICAM-1 expression (ICAM-1/β-actin) (ICAM-1) | NOS2 expression (NOS2/β-actin) (NOS2) | potency to intercept ROS formation relative to bixin (RAW 264.7 cells [1]; in vitro, KBx versus bixin)
COC(=O)/C=C/C(C)=C\C=C\C(C)=C\C=C\C=C(C)\C=C\C=C(C)\C=C\C(=O)O [HBx, (2E,4E,6E,8E,10E,12E,14E,16Z,18E)-20-methoxy-4,8,13,17-tetramethyl-20-oxoicosa-2,4,6,8,10,12,14,16,18-nonaenoic acid] | dose-dependent reduction in ROS production | no migration occurred | completely inhibited | maintained F-actin at control levels | do not display a significant increase in green fluorescence intensity | prevent p-p65 NF-κB nuclear translocation | effective in reducing it | reduced ICAM-1 expression | reduced it | 
potassium bixinate [KBx] | dose-dependent reduction in ROS production | no migration occurred | completely inhibited | maintained F-actin at control levels | do not display a significant increase in green fluorescence intensity | prevent p-p65 NF-κB nuclear translocation | effective in reducing it | reduced ICAM-1 expression | reduced it | three-fold more potency
